Experimental data: patent US11059825B2, “CXCR7 antagonists” (CHEMOCENTRYX, INC., priority 2012, dated 2021)

Assays:
CXCR7 receptor [1] = target: T1, CXCR7 receptor (Homo sapiens (Human), UniProt P25106); test: Serum Binding Analysis: displacement of 125I SDF-1 from CXCR7 in 100% human serum; conditions: 100% human serum (human AB serum with 10 mM HEPES), MCF-7 and/or MDA-MB-435S CXCR7 transfected cells, 125I SDF-1, 3 hrs at 4° C.; read-out: Avg Ser IC50
Method: (§1) The ability of the compounds to displace the labeled chemokine from the CXCR7 receptor sites at multiple concentrations was then determined with the screening process.
(§2) ^125I-labeled SDF-1 was purchased from Perkin-Elmer Life Sciences, Inc. (Boston, Mass.). The MCF-7 (adenocarcinoma; mammary gland) cell line was obtained from the American Type Culture Collection (ATCC, Manassas, Va.) or and was cultured in DMEM (Mediatech, Herndon, Va.) supplemented with 10% fetal bovine serum (FBS) (HyClone Logan, Utah) and bovine insulin (0.01 mg/mL) (Sigma, St. Louis, Mo.) at 37° C. in a humidified incubator at a 5% CO2/air mixture. CXCR7 transfected MDA-MB-435S were produced as described below. MDA-MB-435 S human breast cancer line, was purchased from ATCC, and cultured in DMEM/10% FBS medium. The complete coding sequence of the gene encoding CXCR7 (a.k.a. CCXCKR2, hRDC1), was isolated from MCF-7 cells using MACs mRNA isolation kit (Miltenyi Biotec, Auburn, Calif.). DNA contamination was removed by DNase digestion via RNeasy columns (Qiagen, Inc., Valencia, Calif.) and cDNA was generated using GeneAmp RNA PCR Core Kit (Applied Biosystems, Foster City, Calif.). PCR of cDNA samples was performed using Taq PCR Master Mix kit (Qiagen, Inc.) and hRDC1 primers harboring 5′ and 3′ Not I sites (hRDC1F 5′ […]-3′, hRDC1R 5′-[…]-3′) Not I digested PCR product was ligated into Not I digested pcDNA3.1 (+)(Invitrogen, Carlsbad, Calif.) and screened for orientation and sequence confirmed. Plasmid DNA was then isolated from overnight bacterial cultures by Maxiprep (Qiagen, Inc.). Plasmid DNA (10 μg) was added to MDA-MB-435s cells and cells were electroporated (0.22 kV, 960 uF) via Gene Pulser (Biorad laboratories, Hercules, Calif.). 48 hr post-electroporation, cells were transferred to selection medium (600 ug/ml G418).
In order to more properly assess the binding efficacy of the compounds, radioligand binding assays were carried out in the presence of 100% human serum to more accurately reflect the in vivo environment. […] Target compounds were tested to determine their ability to bind with CXCR7 sites on MCF-7 and/or MDA-MB-435S CXCR7 transfected cells. Efficiency-maximized radioligand binding using filtration protocols as described in Dairaghi D J, et al., HHV8-encoded vMIP-I selectively engages chemokine receptor CCR5. Agonist and antagonist profiles of viral chemokines., J. Biol. Chem. 1999 Jul. 30; 274(31): 21569-74 and Gosling J, et al., Cutting edge: identification of a novel chemokine receptor that binds dendritic cell- and T cell-active chemokines including ELC, SLC, and TECK., J. Immunol. 2000 Mar. 15; 164(6):2851-6 was used.
In these assays, MCF-7 and/or MDA-MB-435S cells were interrogated with the target compounds and the ability of these compounds to displace 125 I radiolabeled SDF-1 was assessed using the protocol described in Dairaghi and Gosling. The target compounds were added to the plate to the indicated concentration followed by addition of cells and radiolabeled chemokine (125I SDF-1), both in the following medium (human AB serum with 10 mM HEPES added to stabilize at pH 7.4). All assays were then incubated for 3 hrs at 4° C. with gentle agitation. Following incubation in all binding assays, reactions were aspirated onto PEI-treated GF/B glass filters (Packard) using a cell harvester (Packard) and washed twice (25 mM HEPES, 500 mM NaCl, 1 mM CaCl2, 5 mM MgCl2, adjusted to pH 7.1). Scintillant (MicroScint 10, Packard) was added to the wells, and the filters were counted in a Packard Topcount scintillation counter. Data were analyzed and plotted using GraphPad Prism (GraphPad Software).

[2] = tested on: C6 cells implanted into the brains of Sprague-Dawley rats; test: Rat C6 model of glioblastoma; type: in vivo; conditions: tumors irradiated after 7 days with 5-20 Gy, then treated with compound
Method: Many tumor models in animals are known in the art, and may be employed to evaluate a compound of instance. For instance, in a rat C6 model of glioblastoma, 1×10^6 C6 cells were implanted by stereotactic injection into the into the brains of Sprague-Dawley rats. After 7 days tumors were irradiated with between 5-20 Gy of radiation. Following irradiation rats were treated (eg via subcutaneous, intraperitoneal, oral, parenteral or other route) with compound or vehicle control and tumors are allowed to progress. Animals were followed until death or loss of >20% weight, or removed for tumor induced neurodeficits eg seizures and immobility in according with appropriate regulations and standards.

CXCR7 receptor [3] = target: T1, CXCR7 receptor; test: Buffer Binding Analysis: displacement of 125I-labeled SDF-1 from CXCR7 on cells; conditions: buffer binding medium, MCF-7 and/or MDA-MB-435S CXCR7 transfected cells, 125I SDF-1, 3 hr at 4° C.; read-out: Avg Bind IC50
Method: as §1, §2
Target compounds can be tested to determine their ability to bind with CXCR7 sites on MCF-7 and/or MDA-MB-435S CXCR7 transfected cells. Efficiency-maximized radioligand binding using filtration protocols as described in Dairaghi D J, et al., HHV8-encoded vMIP-1 selectively engages chemokine receptor CCR5. Agonist and antagonist profiles of viral chemokines., J. Biol. Chem. 1999 Jul. […]
In these assays, MCF-7 and/or MDA-MB-435S cells are interrogated with the target compounds and the ability of these compounds to displace ^125I radiolabeled SDF-1 assessed using the protocol described in Dairaghi and Gosling. […] Scintillant (MicroScint 10, Packard) is added to the wells, and the filters counted in a Packard Topcount scintillation counter. Data are analyzed and plotted using GraphPad Prism (GraphPad Software).

T1 sequence (P25106 whole entry): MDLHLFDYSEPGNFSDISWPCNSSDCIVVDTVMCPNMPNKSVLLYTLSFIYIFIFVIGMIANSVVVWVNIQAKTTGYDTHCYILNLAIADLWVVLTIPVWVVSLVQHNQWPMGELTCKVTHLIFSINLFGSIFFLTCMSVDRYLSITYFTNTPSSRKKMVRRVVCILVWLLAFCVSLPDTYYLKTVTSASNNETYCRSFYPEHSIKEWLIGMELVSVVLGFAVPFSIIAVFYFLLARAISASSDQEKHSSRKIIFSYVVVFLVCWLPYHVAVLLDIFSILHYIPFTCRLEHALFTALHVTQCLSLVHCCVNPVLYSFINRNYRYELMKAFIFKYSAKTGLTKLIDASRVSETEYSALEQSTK

Structure (SMILES)	IC50 (CXCR7 receptor [1])	antitumor activity (delay in tumor growth vs vehicle treated control; Kaplan Meier analysis of survival) [2]	IC50 (CXCR7 receptor [3])
O=C(N[C@@H]1CCN(c2nccn3ccnc23)C1)c1ncn(-c2ccccc2)n1 [Compound 1.027]	0.5 to 2.5 µM	–	–
O=C(N[C@H]1CCN(c2nccn3ccnc23)C1)c1csc(N2CCC3(CC3)C(O)C2)n1 (stereo partly shown) [Compound 1.047]	2.5 to 15 µM	–	–
CN(C)c1cnc(C(=O)N[C@H]2CCN(c3nccn4cccc34)C2)nc1 [Compound 1.049]	≤ 0.5 µM	–	–
O=C(N[C@H]1CCN(c2nccn3ccnc23)C1)c1ncn(-c2ccc(F)cc2)n1 [Compound 1.090]	–	profound antitumor activity	–
Cc1ccn2ccnc(N3CC[C@H](NC(=O)c4csc(N5CCC(O)CC5)n4)C3)c12 [Compound 1.097]	≤ 0.5 µM	–	≤ 0.5 µM
O=C(N[C@H]1CCN(c2nccn3cccc23)C1)c1csc(N2CCC(O)CC2)n1 [Compound 1.098]	≤ 0.5 µM	–	≤ 0.5 µM
O=C(N[C@H]1CCN(c2nccn3ccnc23)C1)c1noc(-c2ccccc2)n1 [Compound 1.121]	≤ 0.5 µM	–	≤ 0.5 µM
O=C(N[C@H]1CCN(c2nccn3cnnc23)C1)c1ncn(-c2ccccc2)n1 [Compound 1.127]	0.5 to 2.5 µM	–	–
O=C(N[C@H]1CCN(c2nccn3cccc23)C1)c1ccn(-c2ccc(F)cc2)n1 [Compound 1.128]	≤ 0.5 µM	–	≤ 0.5 µM
